Laboratory results from EP4711366A1, “PYRIMIDO MACROHETEROCYCLIC COMPOUND AS WEE1-YES DUAL-TARGET INHIBITOR AND USE THEREOF” (Mindrank AI Ltd., priority 2023, dated 2024).

Test system: Human ovarian cancer OVCAR-3 cells
Assay: In vivo efficacy study against OVCAR-3 tumors (subcutaneous tumor-bearing model)
Set-up: species or system BALB/c nude mice
Conditions: 80mg/kg, PO, QD×28
Description: Human ovarian cancer OVCAR-3 cells were subcultured and expanded in an RPMI-1640 culture medium containing 20% FBS and 0.01 mg/mL bovine insulin. BALB/c nude mice aged 6-8 weeks were taken and each subcutaneously injected with 5 × 10^6 cells to establish a tumor-bearing model. The tumor volume was monitored, and when the tumor volume reached about 150 mm^3, the animals were randomized into 5 groups according to body weight and tumor volume. The animals were given, by oral gavage, the vehicle or compounds to be tested (ZN-c3 and IE) once daily for a total of 28 days. During the period of administration, the tumor volume and the animal body weight were measured twice a week, and the animals' states were observed daily. At the endpoint, the animals were euthanized with carbon dioxide, and the subcutaneous tumors were isolated and weighed.
The data calculation formulae are shown below: The tumor volume (TV) was calculated using the formula 1/2×axb^2, where a and b represent the length and width measurements of the tumor, respectively.
The tumor growth inhibition rate (%TGITV) was calculated using the formula (1 - TVT/TVC) × 100%, where TVc represents the average tumor volume of the negative control group, and TVT represents the average tumor volume of the treatment group.
The relative tumor volume (RTV) was calculated using the formula Vt/V0, where V0 represents the tumor volume at the time of grouping, and Vt represents the tumor volume at each measurement.

C=CCn1c(=O)c2cnc(Nc3ccc(N4CCN(C)CC4)cc3)nc2n1-c1cccc(C(C)(C)O)n1 [AZD-1775, reference compound]
Relative tumor inhibition (%) Day 28: 58.28% | Relative tumor volume Day 28: 2.18
